Non-standard residues stand in square brackets, D forms with d. Residues, ends and D or L forms follow the SMILES beside them. *: point of attachment. dPhe(4-Cl) = N[C@H](Cc1ccc(Cl)cc1)C(=O)O; Ahp = NCCCCCCC(=O)O; Bn = c1ccc(C*)cc1
Key:
[1] = ICV food intake and body weight change; format: in vivo; conditions: rat, 1 nmol, 24 hours
In short: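 Rats fitted with intracerebroventricular cannulas and fed ad libitum got a single ICV dose of vehicle or compound (1-3 nmol). Food intake and body-weight change over the 24 h after dosing were compared with a 1-week vehicle baseline. Values at 48 h and 72 h were also recorded to follow return to baseline.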

[2] = Penile erection induction in male rats; format: in vivo; conditions: rat
In short: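 Male Sprague-Dawley rats (200-250 g), groups of 4-8, dosed IV or ICV at various doses and observed individually for penile erections. Only statistically relevant increases over vehicle-control mean PEs count as induction; IV responses below 1.0 PEs/rat treated as equivocal, some retested ICV.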

[3] = target: T1, MC4-R (Homo sapiens, UniProt P32245); experiment: Competitive inhibition assay using [I^125]-NDP-α-MSH, hMC4-R membranes; format: binding; parameters: host or cells: TREx-293 (HEK-293 stably expressing Tet repressor); conditions: 1 μM test compound; read-out: Inhibition at 1 μM (NDP-α-MSH) In Normal System, MC4-R
In short: (§1)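 Tracer was 0.4 nM for MC3-R and MC5-R, 0.2 nM for MC4-R and 0.1 nM for MC1-R. Bound radioactivity was gamma-counted after filtration; values are triplicate means, with results below 0% reported as 0%.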

[4] = target: MC3-R (Homo sapiens, UniProt P41968); experiment: Competitive inhibition assay using [I^125]-NDP-α-MSH, hMC3-R membranes; format: binding; parameters: expressed in transfected cells; conditions: 1 μM test compound; read-out: Inhibition at 1 μM (NDP-α-MSH) In Normal System, MC3-R
In short: as §1

[5] = IV and IP food intake and body weight change, rats; format: in vivo; conditions: rat, IV
In short: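 Male Sprague-Dawley rats dosed IV (0.5-3, up to 10 mg/kg) or IP (0.5-10, up to 50 mg/kg); male C57BL/6 mice dosed IP. Change in food intake and body weight over 24 h post-dose versus 1-week vehicle baseline, with 48 and 72 h reversal checks.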

[6] = target: MC5-R (Homo sapiens, UniProt P33032); experiment: Competitive inhibition assay using [I^125]-NDP-α-MSH, hMC5-R membranes; format: binding; parameters: expressed in transfected cells; conditions: 1 μM test compound; read-out: Inhibition at 1 μM (NDP-α-MSH) In Normal System, MC5-R
In short: as §1

[7] = target: T1, MC4-R; experiment: cAMP functional activity assay in HEK-293 cells, normal system; format: cell-based; parameters: expressed in transfected cells; host or cells: HEK-293; conditions: for intrinsic activity at MC4-R in a normal system: normal receptor density system, NDP-α-MSH = 1.0
[8] = target: T2, MC1-R (Mus musculus, UniProt Q01727); experiment: Competitive inhibition assay using [I^125]-NDP-α-MSH, B-16 mouse melanoma cell membranes; format: binding; conditions: for inhibition at 1 µM: 1 μM test compound, read-out: Inhibition at 1 μM (NDP-α-MSH) In Normal System, MC1-R
T2 construct: B-16 mouse melanoma cells (containing MC1-R); endogenous in cells
In short: as §1

T1 sequence (P32245 whole entry): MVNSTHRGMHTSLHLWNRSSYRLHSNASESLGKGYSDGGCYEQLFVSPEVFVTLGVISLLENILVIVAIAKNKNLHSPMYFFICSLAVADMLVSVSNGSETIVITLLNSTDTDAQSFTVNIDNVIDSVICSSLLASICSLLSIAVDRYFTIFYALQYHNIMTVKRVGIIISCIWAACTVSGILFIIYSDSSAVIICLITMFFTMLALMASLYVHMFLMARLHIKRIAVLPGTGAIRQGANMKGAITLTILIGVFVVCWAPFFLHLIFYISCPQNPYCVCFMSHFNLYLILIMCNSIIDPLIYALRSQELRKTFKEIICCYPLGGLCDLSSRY
T2 sequence (Q01727 whole entry): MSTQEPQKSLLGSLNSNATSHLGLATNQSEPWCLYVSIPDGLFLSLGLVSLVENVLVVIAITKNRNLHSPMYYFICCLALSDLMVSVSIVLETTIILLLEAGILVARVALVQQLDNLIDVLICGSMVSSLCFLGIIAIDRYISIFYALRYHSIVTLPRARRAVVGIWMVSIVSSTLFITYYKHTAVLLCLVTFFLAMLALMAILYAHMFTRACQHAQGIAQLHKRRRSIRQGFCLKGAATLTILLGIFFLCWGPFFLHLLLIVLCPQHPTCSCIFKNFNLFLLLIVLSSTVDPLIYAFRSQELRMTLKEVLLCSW
MC5-R, sequence (P33032 whole entry): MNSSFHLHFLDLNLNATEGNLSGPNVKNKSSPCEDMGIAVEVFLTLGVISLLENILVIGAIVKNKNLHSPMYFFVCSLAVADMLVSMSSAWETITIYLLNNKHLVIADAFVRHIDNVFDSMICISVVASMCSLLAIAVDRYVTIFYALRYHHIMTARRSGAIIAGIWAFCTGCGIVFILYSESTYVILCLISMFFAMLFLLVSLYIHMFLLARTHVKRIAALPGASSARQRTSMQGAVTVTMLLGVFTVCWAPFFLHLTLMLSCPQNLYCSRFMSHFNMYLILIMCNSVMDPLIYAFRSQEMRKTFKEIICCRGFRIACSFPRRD
MC3-R, sequence (P41968 whole entry): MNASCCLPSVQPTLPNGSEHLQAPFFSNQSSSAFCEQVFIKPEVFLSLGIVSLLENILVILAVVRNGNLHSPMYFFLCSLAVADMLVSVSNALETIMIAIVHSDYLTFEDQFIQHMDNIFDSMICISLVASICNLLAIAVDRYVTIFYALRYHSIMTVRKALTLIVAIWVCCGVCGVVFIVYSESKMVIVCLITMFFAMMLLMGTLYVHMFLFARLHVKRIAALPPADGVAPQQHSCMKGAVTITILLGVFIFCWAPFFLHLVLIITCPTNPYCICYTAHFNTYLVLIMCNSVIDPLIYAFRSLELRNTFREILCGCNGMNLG

| Compound | decrease in body weight [1] | decrease in food intake [1] | Penile Erection IV ([2]; IV) | penile erection response ([2]; IV) | inhibition at 1 µM [3] | inhibition at 1 µM [4] | 24 hour decrease in food intake ([5]; dose not stated) | decrease in body weight ([5]; dose not stated, 24 hours) | inhibition at 1 µM [6] | intrinsic activity at MC4-R in a normal system [7] | inhibition at 1 µM [8] | Penile Erection ICV ([2]; ICV) | penile erection response ([2]; ICV, 0.3 to 3 nmole) | penile erection response ([2]; IV, 0.3 to 30 μg/kg) | maximal decrease in food intake ([5]; 10 mg/kg, 24 hours) | functional status at MC4-R in cAMP assay ([7]; normal system, 1 μM concentration where stated) | Ki ([8]; read-out: Ki (nM) (NDP-α-MSH) In Normal System, MC1-R) |
| --- | --- | --- | --- | --- | --- | --- | --- | --- | --- | --- | --- | --- | --- | --- | --- | --- | --- |
| N=C(N)NCCC[C@H](NC(=O)[C@@H](Cc1ccc(Cl)cc1)NC(=O)[C@H](COCc1ccccc1)NC(=O)CCCCCCN)C(=O)N[C@@H](Cc1c[nH]c2ccccc12)C(=O)N[C@@H](CC(=O)O)C(N)=O [Example 13, NH2—(CH2)6—C(═O)-Ser(Bzl)-D-Phe(4-Cl)-Arg-Trp-Asp-NH2] (H-[Ahp]S(Bn)[dPhe(4-Cl)]RWD-NH2) | 2.1% | 25.7% | No | no penile erections | 98% | 73% | 6% | 1% | 48% | 0.5 | 35% | – | – | – | – | – | – |
| N=C(N)NCCC[C@H]1CN(CCc2ccc3ccccc3c2)CCN1C(=O)[C@H](N)Cc1ccc(Cl)cc1Cl [Example 17, N-{3-[(S)-1-[(R)-2-Amino-3-(2,4-dichloro-phenyl)-propionyl]-4-(2-naphthalen-2-yl-ethyl)-piperazin-2-yl]-propyl}-guanidine] | – | 32% | No | – | 99% | 87% | – | – | 75% | 0.4 | 6% | No | no penile erection response | no penile erection response | 91% | partial agonist (intrinsic activity between 0.1 (10%) and 0.7 (70%) is classified as a partial agonist) | 1200 nM |
